Assay: Human HepG2 cell viability assay in 384 well format
Assay type: toxicity, cell-based
Design: dose 125 nL, time 70.5 hour; concentration not given beside the values
Settings: HepG2 cells, read-out: Inhibition

SMILES | cytotoxicity at 70.5 h [%]
COCc1ccc(CN2CCC(O)(Cn3ccc4ncccc43)CC2)o1 | -8.64
COc1c(C)cc(CNCc2ccnc(N3CCOCC3)c2)cc1C | 2.82
Cc1cc(N2CCC(N(C)C(=O)c3ccccc3)CC2)nc(C)n1 | -0.672
CCC[C@@H]1CN(Cc2ccccc2-c2ccco2)C[C@H]1NC(C)=O | -5.42
CC(C)NC(=O)CCNC(=O)CCc1cc(Br)cs1 | -6.47
Cn1nc(C2CCN(CC(=O)NC3CC3)CC2)n(-c2ccccc2)c1=O | -8.96
O=S(=O)(c1ccccc1)N1CCCC(Cn2cncn2)C1 (stereo unspecified) | -4.76
Cc1cccc(CN2CCC3(CC2)NC(=O)C[C@H]3c2cnn(C)c2)n1 | -8.35
O=C1NCc2ccc(NC(=O)C3CCCN3c3nccs3)cc21 (stereo unspecified) | -9.24
COc1ccnc(N2CCN(C(=O)c3csc(C4CC4)n3)CC2)n1 | -6.71
CC(=O)N1CCN(c2cc(CCNC(=O)C(C)C)nc(C3CC3)n2)CC1 | -7.84
Cc1cnn(C2CN(c3ccccc3S(=O)(=O)C(F)(F)F)C2)c1 | 1.3
CCC(=O)N1CCC2(COCc3c(C)nc(N(C)C)nc32)C1 (stereo unspecified) | 20.3
CCn1c(N)nc2cc(C(=O)NCCc3ccncc3)cnc21 | -13.4
COc1cc(CNCc2ccc(-n3nc(C)cc3C)nc2)cc(OC)c1 | -5.72
CCS(=O)(=O)N1CC(c2nc(-c3cccs3)no2)C1 | -2.02
Cc1nc(CN2CCOC(Cn3cccn3)C2)nc2ccccc12 (stereo unspecified) | -12.1
CNCCc1nc2cc(F)ccc2[nH]1 | -5.66
CNS(=O)(=O)c1ccc(CNC(=O)N(C)CC(O)COC)cc1 (stereo unspecified) | -74.7
Cc1ccc(CC(=O)NCCCNS(C)(=O)=O)cc1 | 1.07
CCN(C(=O)NCCc1ccc(C)cc1C)C(C)CS(C)(=O)=O (stereo unspecified) | -12.9

SMILES | cytotoxicity at 70.5 h [%]
O=C(NCc1ccco1)[C@H]1CC[C@@H]2[C@@H](CCN2c2ncccn2)O1 | 12.4
COc1ccccc1C(C)Nc1ncc(C(N)=O)cc1Cl (stereo unspecified) | -9.04
O=C(C1CC1)N1CCc2c(ncnc2N2CCN3CCCC3C2)C1 (stereo unspecified) | 26
Cc1noc(C)c1CN(C)CC1CC(C2CCCCC2)=NO1 (stereo unspecified) | -2.46
COC1(CNC(=O)c2ccoc2)CCSC1 (stereo unspecified) | -11
CCOC(=O)CCn1cnc2onc(-c3cc(OC)ccc3Cl)c2c1=O | -11
O=C(CCNC(=O)c1sccc1-c1ccccc1)NC1CCS(=O)(=O)C1 (stereo unspecified) | -9.28
Cc1ncncc1C(=O)N1CCCC1c1c(C)nn(C)c1Cl (stereo unspecified) | -10.6
COc1cc(C(C)NCc2cscn2)ccc1SC(F)F (stereo unspecified) | 30.9
Fc1cccnc1N1CCOCC2(CCCN(c3nncs3)C2)C1 (stereo unspecified) | -9.83
C[C@H](NC(=O)C1CCCC1)c1nc2cc(-c3ccc(F)cc3)ncn2n1 | 4.97
Cn1cc(CCNCc2cc(Cl)c3c(c2)OCCO3)cn1 | -2.02
c1cnc(NCc2cncc3c2CCN(Cc2cccs2)C3)nc1 | -10.8
CC(C)Cc1cc(C(=O)NCC2CCCN(c3ccccn3)C2)on1 (stereo unspecified) | 9.21
Cc1ccc(NC(=O)C2CSCN2C(=O)c2cccnc2)c(C)c1 (stereo unspecified) | 6.06
N#Cc1cccc(C(=O)Nc2ccc([C@@H](O)[C@H]3COCC(=O)N3)cc2)c1 | -9.14
CNC(=O)[C@@H]1CN(Cc2ccccc2)C[C@H]1C(=O)c1ccc(F)cc1 | -1.84
CCCn1nc2c(cc1=O)CN(C(C)C(=O)Nc1nccs1)CC2 (stereo unspecified) | 4.51
Cc1nc(C)n(CC2CCCCN2Cc2nc3ccccc3o2)n1 (stereo unspecified) | 17.7
CCCN(CCC)C(=O)Cn1c(SC)nc2ccsc2c1=O | -0.333
COc1nc2ccccc2cc1C1CC(=O)Nc2n[nH]c(C3CCC3)c21 (stereo unspecified) | 4.02

SMILES | cytotoxicity at 70.5 h [%]
CC(=O)N1CCOC(c2ccnc(N(C)C)n2)C1 (stereo unspecified) | 1.91
CSc1nc2ccsc2c(=O)n1CC(=O)N(C)C1CCCCC1 | -5.09
CC(Cn1cncn1)NC(=O)NCc1csc(N(C)C)n1 (stereo unspecified) | -8.98
CC(C)(C)n1ncc2c1NC(=O)CC2c1ccc(C#N)cc1 (stereo unspecified) | -10
OCC1CCCCN1Cc1nc(Cc2ccccc2)no1 (stereo unspecified) | -3.62
CCN1CCN(C(=O)c2cc(NC(=O)c3ccccc3)n(C)n2)CC1 | -3.8
COc1ccc(-c2cc3nc([C@H](C)NC(=O)C4CC4)nn3cn2)cc1 | -0.493
Cc1cnn(CC2CCCN2C(=O)c2ccccc2-n2cccn2)c1 (stereo unspecified) | -12.6
Cc1nc(N2CCCN(C(=O)c3ccsc3)CC2)c2cnn(C)c2n1 | -2.94
Cc1noc(C)c1C(=O)N1CCC(c2cc3cnccc3[nH]2)CC1 | -5.78
O=C(NC1CC1)c1nc2c(s1)CCCN2c1ccccc1 | -6.79
O=C(NC[C@@H]1CCCO1)c1cc(Br)cnc1N1CCCCC1 | -1.68
COc1ccc(C(=O)N(C2CC2)C2CC(=O)NC2=O)cc1 (stereo unspecified) | -2.33
Cc1oc(-c2nc(C#N)c(NC3CC3)o2)cc1S(=O)(=O)N1CCCC1 | -25.9
O=C(Nc1cccc2c1CCCC2)c1cccc(CN2CC[C@H](O)C2)c1 | -4.36
CC(C)(C)C(=O)N1CCC2(CNS(=O)(=O)c3cnccc3O2)C1 (stereo unspecified) | 41.2
CNC(=O)c1cn2cc(-c3ccccc3Cl)n(CC3CC3)c(=O)c2n1 | 15.9
Nc1nc2c(c(NC(=O)Nc3ccc(Cl)c(Cl)c3)n1)CCCC2 | 9.83
CO[C@H]1COCCN(C(=O)c2cc(C)oc2C(F)(F)F)C1 | -3.96
Cc1cccc(N2CCN(C(=O)Nc3cnn(CC(N)=O)c3)CC2)c1 | -18.1
CCN(CC)C1CCN(C(=O)NCc2nncn2CC)CC1 | -0.0969

SMILES | cytotoxicity at 70.5 h [%]
CN1[C@H](Cn2cncn2)C[C@@H]2CN(C3CCOCC3)CC[C@@H]21 | 0.159
CCNC(=O)CCC(=O)Nc1ccc2nn(C(C)C)cc2c1 | 18.4
O=C(NCC(=O)N1CCc2ccccc2C1)c1ccoc1 | 10.2
CCCS(=O)(=O)N1C[C@@H](OCc2ccncc2)[C@H]2OCCC[C@H]21 | -7.43
COc1cc(C(=O)NCCc2cccc(C)c2)on1 | 2.66
CNc1nc(C(=O)NCc2cccnc2N(C)C2CCCCC2)cs1 | 12.4
c1ccc2c(N3CCOCC3)cnnc2c1 | -8.59
O=c1[nH]c(CCN2CCCC2Cn2cccn2)nc2ccccc12 (stereo unspecified) | -9.61
Cc1cccc2c1nc1n2[C@@H](CNC(=O)c2ccccn2)COC1 | -1.91
CC(CNC(=O)C1(c2ccc(F)cc2)CC1)CN1CCCC1=O (stereo unspecified) | 15.4
Cc1nc(NC(=O)c2c3c(nn2C2CCS(=O)(=O)C2)CCC3)sc1C (stereo unspecified) | 16.2
CN(C(=O)c1ccc(Cl)cc1)C1CCN(c2ccccn2)CC1 | 2.33
CC(c1cccnc1)N1CCN(C(=O)NCc2cnn(C)c2)CC1 (stereo unspecified) | -1.81
CC(C)c1nnc2n1CC(CNc1cnc3ccccc3n1)CC2 (stereo unspecified) | -9.13
CC(C)(C)C(=O)NCCC(=O)Nc1cc(C#N)cn1C(C)(C)C | -4.11
Cc1nn2c(NCC(=O)NC3CC3)cc(-c3ccccc3)nc2c1C | -2.36
CN1CC(=O)N(c2cccnc2)CC12CCN(C(=O)c1cccn1C)C2 (stereo unspecified) | 1.98
COc1ccc(CN2CCOC[C@H]2c2nc(-c3ccncc3)c[nH]2)cc1 | -1.1
